Where two headings read alike, the source gives them in different places.
Experiments:
cyclo-oxygenase = conditions: conventional prostaglandin synthesis inhibitors; cited from earlier work
prostacyclin synthetase = conditions: conventional prostaglandin synthesis inhibitors; cited from earlier work
[1] = tested on: platelet aggregation in normal human plasma; assay: Platelet aggregation in normal human plasma induced by ADP; format: cell-based; conditions: for T/min, Aggregation (first value) / Tmax, Aggregation (first value): control 75.1; for activity at 1000 µM / inhibition at 1000 µM / activity at 100 µM / inhibition at 100 µM: Homo sapiens, Platelet; for activity at 1000 µM / activity at 100 µM: control 100
Protocol: (§1) The platelet aggregation was determined by a tubimetric method in a dual-channel aggregometer, assuming that a platelet-poor plasma represented 100% aggregation and that a platelet-rich plasma represented 0% aggregation. Each aggregometer tube was charged with 40 μl of platelet-rich plasma and 50 μl of test sample solution. The mixture was incubated at 37° C. for 2 min., whereupon 50 μl of ADP solution were added. Percent inhibition of the platelet aggregation caused by the test sample solution was calculated as follows: [formula]

[2] = tested on: platelet aggregation in diabetic human plasma; assay: Platelet aggregation in diabetic human plasma induced by ADP; format: cell-based; conditions: for activity at 1000 µM / inhibition at 1000 µM / activity at 100 µM / inhibition at 100 µM: Homo sapiens, Platelet; for activity at 1000 µM / activity at 100 µM: control 100
Protocol: as §1

[3] = Increase of the peripheral insulin action in diabetic mice; format: in vivo; conditions: 0.46 mU/g, control group (FIG. 5)
Protocol: Diabetic mice were divided into a control group and a test group. A dose of 100 mg of brazilin per kg body weight was daily administered to the animals of the test group; instead of brazilin, the same amount of saline solution was injected intraperitoneally to the animals of the control group.
After 30 test days, the body weight of the animals of the test group was higher and the blood sugar values of these animals were lower as compared to the diabetic animals of the control group.
On the 30th test day, the animals were made to fast for 5 h; thereupon, they were injected intravenously with 0.46 mU/g of NPH insulin. Then, the blood sugar values were measured at respective intervals of 5 min.

[4] = tested on: lipid peroxidation in the mitochondria of rat liver; conditions: Arch. Pharm. Res. 7, 63-64, 1984; cited from earlier work
[5] = Planta Med. 31, 214-220 (1977); cited from earlier work
[6] = Comparison of synthetic substances with full extract; conditions: synthetically prepared substance
[7] = Rev. Latinoam. Microbiol. 1, 225-232 (1958); cited from earlier work
plasmalipid = conditions: spontaneously hypertensive rats; Fette-Seifen-Anstrichmittel 87, 74-76 (1985); cited from earlier work
[8] = 10^-3 M, read-out: T/min, Aggregation relative to control (second value)
[9] = 10^-3 M, read-out: Tmax, Aggregation relative to control (second value)
[10] = 10^-3 M, read-out: T/min, Inhibition
[11] = 10^-3 M, read-out: Tmax, Inhibition
[12] = 10^-4 M, read-out: T/min, Aggregation relative to control (second value)
[13] = 10^-4 M, read-out: Tmax, Aggregation relative to control (second value)
[14] = 10^-4 M, read-out: T/min, Inhibition
[15] = 10^-4 M, read-out: Tmax, Inhibition

COc1ccc2c(c1)c(CC(=O)O)c(C)n2C(=O)c1ccc(Cl)cc1 [indomethacin]
inhibition of cyclo-oxygenase (cyclo-oxygenase): inhibit the activity of cyclo-oxygenase
inhibition of prostacyclin synthetase (prostacyclin synthetase): prostacyclin synthetase is also undesirably inhibited

CC(=O)Oc1ccccc1C(=O)O [acetylsalicylic acid, reference compound]
inhibition of cyclo-oxygenase (cyclo-oxygenase): inhibit the activity of cyclo-oxygenase
T/min, Aggregation (first value) ([1]; 10^-3 M): 11.9%
Tmax, Aggregation (first value) ([1]; 10^-3 M): 37.5%
T/min, Aggregation (first value) ([1]; 10^-4 M): 17.4%
Tmax, Aggregation (first value) ([1]; 10^-4 M): 60.2%
activity at 1000 µM [1, 8]: 15.8%
activity at 1000 µM [1, 9]: 49.9%
inhibition at 1000 µM [1, 10]: 84.6%
inhibition at 1000 µM [1, 11]: 50.1%
activity at 100 µM [1, 12]: 23.2%
activity at 100 µM [1, 13]: 80.1%
inhibition at 100 µM [1, 14]: 76.8%
inhibition at 100 µM [1, 15]: 19.9%
Tmax, Aggregation (first value) ([2]; 10^-3 M, control 78.7): 70.0%
Tmax, Aggregation (first value) ([2]; 10^-4 M, control 78.7): 73.8%
activity at 1000 µM [2, 9]: 88.9%
inhibition at 1000 µM [2, 11]: 11.1%
activity at 100 µM [2, 13]: 93.6%
inhibition at 100 µM [2, 15]: 6.4%
inhibition of prostacyclin synthetase (prostacyclin synthetase): prostacyclin synthetase is also undesirably inhibited

NPH insulin [reference compound]
blood sugar after i.v. NPH insulin in diabetic control mice [3]: cannot significantly change the blood sugar value

Oc1cc2c(cc1O)[C@@H]1c3ccc(O)c(O)c3OC[C@]1(O)C2 [hematoxylin]
T/min, Aggregation (first value) ([1]; 10^-3 M): 11.7%
Tmax, Aggregation (first value) ([1]; 10^-3 M): 22.6%
T/min, Aggregation (first value) ([1]; 10^-4 M): 58.8%
Tmax, Aggregation (first value) ([1]; 10^-4 M): 68.1%
activity at 1000 µM [1, 8]: 15.6%
activity at 1000 µM [1, 9]: 30.8%
inhibition at 1000 µM [1, 10]: 84.4%
inhibition at 1000 µM [1, 11]: 69.8%
activity at 100 µM [1, 12]: 78.4%
activity at 100 µM [1, 13]: 90.6%
inhibition at 100 µM [1, 14]: 21.7%
inhibition at 100 µM [1, 15]: 9.4%
effect on lipid peroxidation in mitochondria of rat liver [4]: effect on the lipid peroxidation
anti-inflammatory effect [5]: anti-inflammatory effect
effects compared with administration of major amounts of full extract [6]: substantially has the same effects
antibacterial effect [7]: antibacterial effect
T/min, Aggregation (first value) ([2]; 10^-3 M, control 78.7): 7.5%
Tmax, Aggregation (first value) ([2]; 10^-3 M, control 78.7): 52.5%
Tmax, Aggregation (first value) ([2]; 10^-4 M, control 78.7): 76.3%
activity at 1000 µM [2, 8]: 9.5%
activity at 1000 µM [2, 9]: 66.5%
inhibition at 1000 µM [2, 10]: 90.5%
inhibition at 1000 µM [2, 11]: 33.5%
activity at 100 µM [2, 13]: 96.8%
inhibition at 100 µM [2, 15]: 3.2%
inhibition of the platelet aggregation ([2]; conclusion on Tables 12 and 13): considerable inhibition of the platelet aggregation
plasmalipid-reducing effect (plasmalipid): plasmalipid-reducing effect
